In ChEMBL document CHEMBL1201862, “PubChem BioAssay data set” (2004):
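Protocol summary: plate cells (96-well), add compound at 5 concentrations, incubate 48 h, interpolate endpoints linearly. Here, GI50 denotes the concentration required for 50% inhibition of growth.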 The source made the active and inactive calls. Rule as the data show it: active = GI50 up to about 1.1 µM and inactive = higher.

Assays:
Assay in all cases: growth of human tumour cells (NCI), 48 h
[1] = tested on: PC-3
[2] = tested on: K562
[3] = tested on: HOP-62
[4] = tested on: MDA-N
[5] = tested on: CAKI-1
[6] = tested on: ACHN
[7] = tested on: DU-145
[8] = tested on: RPMI-8226
[9] = tested on: HCT-15
[10] = tested on: UO-31
[11] = tested on: SN12C
[12] = tested on: SNB-75
[13] = tested on: SK-OV-3
[14] = tested on: UACC-62
[15] = tested on: M14
[16] = tested on: TK-10
[17] = tested on: NCI-H522
[18] = tested on: NCI-H23
[19] = tested on: NCI/ADR-RES
[20] = tested on: SF-539

Compound	GI50 [1]	GI50 [2]	GI50 [3]	GI50 [4]	GI50 [5]	GI50 [6]	GI50 [7]	GI50 [8]	GI50 [9]	GI50 [10]	GI50 [11]	GI50 [12]	GI50 [13]	GI50 [14]	GI50 [15]	GI50 [16]	GI50 [17]	GI50 [18]	GI50 [19]	GI50 [20]
c1cc(CNCCN2CCNCC2)ccn1	> 100 µM (inactive)	> 100 µM (inactive)	> 100 µM (inactive)	> 100 µM (inactive)	> 100 µM (inactive)	> 100 µM (inactive)	> 100 µM (inactive)	> 100 µM (inactive)	> 100 µM	> 100 µM (inactive)	> 100 µM (inactive)	> 100 µM (inactive)	> 100 µM (inactive)	> 100 µM (inactive)	> 100 µM (inactive)	20.3 µM (inactive)	> 100 µM (inactive)	> 100 µM (inactive)	> 100 µM (inactive)	> 100 µM (inactive)
c1cncc(-c2cc(-c3cc(-c4cccnc4)[nH]n3)n[nH]2)c1	> 100 µM (inactive)	> 100 µM (inactive)	> 100 µM (inactive)	> 100 µM (inactive)	> 100 µM (inactive)	> 100 µM (inactive)	> 100 µM (inactive)	> 100 µM (inactive)	> 100 µM	> 100 µM (inactive)	> 100 µM (inactive)	> 100 µM (inactive)	> 100 µM (inactive)	> 100 µM (inactive)	> 100 µM (inactive)	> 100 µM (inactive)	> 100 µM (inactive)	> 100 µM (inactive)	> 100 µM (inactive)	> 100 µM (inactive)
O=C(O)c1ccccc1NC(c1ccccc1)c1ccc2cccnc2c1O (stereo not given)	9.04 µM (inactive)	8.87 µM (inactive)	7.67 µM (inactive)	13.4 µM (inactive)	9.44 µM (inactive)	9.18 µM (inactive)	18.7 µM (inactive)	3.04 µM (inactive)	4.42 µM	6.12 µM (inactive)	6.58 µM (inactive)	29.3 µM (inactive)	16.8 µM (inactive)	11.6 µM (inactive)	5.81 µM (inactive)	13.8 µM (inactive)	3.97 µM (inactive)	12.6 µM (inactive)	3.77 µM (inactive)	5.14 µM (inactive)
O=[N+]([O-])c1ccc(CN(CCCl)OCCCl)cc1	26.8 µM (inactive)	33.8 µM (inactive)	> 100 µM (inactive)	> 100 µM (inactive)	64.9 µM (inactive)	64.3 µM (inactive)	> 100 µM (inactive)	98.6 µM (inactive)	91 µM	37.8 µM (inactive)	> 100 µM (inactive)	> 100 µM (inactive)	> 100 µM (inactive)	55.8 µM (inactive)	> 100 µM (inactive)	> 100 µM (inactive)	31.3 µM (inactive)	76.7 µM (inactive)	> 100 µM (inactive)	> 100 µM (inactive)
Clc1ccc(/N=C/C=C/Nc2ccc(Cl)cn2)nc1	14.5 µM (inactive)	7.66 µM (inactive)	16.9 µM (inactive)	15.1 µM (inactive)	9.82 µM (inactive)	12.6 µM (inactive)	17.5 µM (inactive)	10.4 µM (inactive)	1.76 µM	15.6 µM (inactive)	14.5 µM (inactive)	13 µM (inactive)	21.8 µM (inactive)	12.9 µM (inactive)	16.4 µM (inactive)	19.1 µM (inactive)	14 µM (inactive)	16.9 µM (inactive)	15.2 µM (inactive)	17.3 µM (inactive)
BrC1=C(Br)C2(SCCS2)[C@H]2C[C@@H]1c1ccccc12	95.5 µM (inactive)	9.12 µM (inactive)	> 100 µM (inactive)	4.07 µM (inactive)	> 91.2 µM (inactive)	> 44 µM (inactive)	47.3 µM (inactive)	13.9 µM (inactive)	17.8 µM	29.4 µM (inactive)	> 91.2 µM (inactive)	16.2 µM (inactive)	> 46 µM (inactive)	65.8 µM (inactive)	> 79.8 µM (inactive)	> 100 µM (inactive)	13.2 µM (inactive)	33.9 µM (inactive)	61.5 µM (inactive)	41.3 µM (inactive)
O=C(NCCCl)N(O)C(=O)Nc1ccccc1	> 100 µM (inactive)	> 100 µM (inactive)	> 100 µM (inactive)	> 100 µM (inactive)	> 100 µM (inactive)	> 100 µM (inactive)	35.4 µM (inactive)	> 100 µM (inactive)	> 100 µM	> 100 µM (inactive)	> 100 µM (inactive)	> 100 µM (inactive)	> 100 µM (inactive)	> 100 µM (inactive)	> 100 µM (inactive)	> 100 µM (inactive)	> 100 µM (inactive)	> 100 µM (inactive)	74.6 µM (inactive)	> 100 µM (inactive)
O=C(O)C(=Cc1ccc(-c2ccc([N+](=O)[O-])cc2)o1)C(=O)O	> 100 µM (inactive)	> 100 µM (inactive)	< 0.01 µM (active)	> 100 µM (inactive)	> 100 µM (inactive)	> 100 µM (inactive)	> 100 µM (inactive)	> 100 µM (inactive)	> 100 µM	> 100 µM (inactive)	> 100 µM (inactive)	> 100 µM (inactive)	> 100 µM (inactive)	> 100 µM (inactive)	> 100 µM (inactive)	> 100 µM (inactive)	> 100 µM (inactive)	> 100 µM (inactive)	> 100 µM (inactive)	> 100 µM (inactive)
COc1cc(C(=O)N(C)N(C)C)cc(OC)c1OC	> 10 µM (inactive)	> 10 µM (inactive)	> 10 µM (inactive)	> 10 µM (inactive)	> 10 µM (inactive)	> 10 µM (inactive)	> 10 µM (inactive)	> 10 µM (inactive)	> 10 µM	> 10 µM (inactive)	> 10 µM (inactive)	> 10 µM (inactive)	> 10 µM (inactive)	> 10 µM (inactive)	> 10 µM (inactive)	> 10 µM (inactive)	> 10 µM (inactive)	> 10 µM (inactive)	> 10 µM (inactive)	> 10 µM (inactive)
N#CC(C#N)=C(N)/C(C#N)=C/c1ccc2[nH]ccc2c1	> 100 µM (inactive)	> 100 µM (inactive)	> 84.3 µM (inactive)	> 100 µM (inactive)	> 100 µM (inactive)	> 100 µM (inactive)	> 100 µM (inactive)	> 100 µM (inactive)	> 100 µM	14 µM (inactive)	> 100 µM (inactive)	22.7 µM (inactive)	> 100 µM (inactive)	> 84.9 µM (inactive)	> 100 µM (inactive)	> 100 µM (inactive)	97.3 µM (inactive)	> 100 µM (inactive)	> 100 µM (inactive)	> 100 µM (inactive)
